Test results taken from patent US8168645B2, “Arylsulfonamide compounds” (Genentech, Inc., priority 2006, dated 2012).

Tests used:
SCLC cell line NCI-H146 = assay: CellTitre-Glow luminescent cytotoxicity assay, NCI-H146; assay type: cell-based; details: Homo sapiens; NCI-H146 cells, 48 hr incubation
Protocol: (§1) • 1. SCLC cell lines NCI-H889, NCI-H1963, and NCI-H146 were purchased from American Type Culture Collection. Cells were maintained in RPMI 1640 (Invitrogen Corp., Grand Island, N.Y.) supplemented with 10% fetal bovine serum (FBS, Invitrogen), 1% sodium pyruvate, 25 mM HEPES, 4.5 g/L glucose and 1% penicillin/streptomycin (Sigma) in a humidified chamber at 37° C. containing 5% CO2. • 2. cells were grown as suspension aggregates in a T162 flask with 25 ml medium and kept at concentration of 1 million/mL. Test Compound Stocks: • 1. test compounds were prepared as 10 mM stocks in DMSO and stored at −20° C. Test Compound Serial Dilutions: • 1. prewarmed medium to 37° C. • 2. thawed compounds to room temperature. • 3. determined what will be the highest concentration to be tested. (i.e. 10 μM). • 4. prepared a 2× stock in culture medium of the first dose (i.e. 2×10 μM=20 μM) in an Eppendorf tube (i.e. 4 μl of 5 mM stock into 1000 μl=20 μM). • 5. inverted tube several times to mix. […] Columns 1-10 comprised the serial test compound treatments, column 11 was the untreated control and column 12 was the ‘no cell’ control for determining the background. • 1. in a 96 well plate was added 50 μl medium/well in columns 2 thru 11 and 100 μl was added to column 12. • 2. in column 1 was added 100 μl of 2× compound. • 3. made serial dilutions by transferring 50 μl to column 2, and so on up to column 10. After adding 50 μl to column 10 and mixing, discarded 50 μl. • 4. stored plates at 37° C. until ready to add cells. Cell Preparation • 1. Cell were washed one time in the culture medium and prepared as a suspension. • a. cell were first spun down to remove the medium and then ˜1 ml 0.25% trypsin was added and gently mixed and incubated for no more than three minutes at room temperature. • b. ˜10 ml of the medium was added and the cells were gently pipetted several times. • c. cells were then counted and spun down to the volume necessary for the total cell number needed, then resuspended in the medium to 200 cells/μl concentration (50,000 cells/well). • 2. […]

GST tagged Mcl-1 protein = GST tagged Mcl-1 protein (Homo sapiens, UniProt Q07820); assay: Alphascreen competition binding assay, GST tagged Mcl-1 vs biotinylated Bak BH3 peptide; details: competition with Bak BH3 peptide; unit inferred
GST tagged Mcl-1 protein, sequence (Q07820 whole entry): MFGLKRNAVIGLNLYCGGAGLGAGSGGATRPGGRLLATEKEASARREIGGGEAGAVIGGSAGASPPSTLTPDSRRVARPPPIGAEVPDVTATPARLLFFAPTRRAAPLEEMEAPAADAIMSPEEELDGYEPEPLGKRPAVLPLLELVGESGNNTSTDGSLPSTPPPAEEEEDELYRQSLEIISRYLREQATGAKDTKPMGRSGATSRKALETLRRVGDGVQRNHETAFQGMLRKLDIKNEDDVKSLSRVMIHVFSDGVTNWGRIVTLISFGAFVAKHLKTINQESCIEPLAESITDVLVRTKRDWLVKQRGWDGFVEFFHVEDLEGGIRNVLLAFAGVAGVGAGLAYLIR
Source text: (§2) Measurement of competition of compounds of the invention with Bim26-mer for a Bcl-2 homologue binding site.
(§3) Alphascreen (Amplified Luminescent Proximity Homogenous Assay) is a bead based technology which measures the interaction between molecules. The assay consists of two hydrogel coated beads which, when bought into close proximity by a binding interaction, allow the transfer of singlet oxygen from a donor bead to an acceptor bead.
(§4) Upon binding and excitation with laser light at 680 nm, a photosensitizer in the donor bead converts ambient oxygen to a more excited singlet state. This singlet oxygen then diffuses across to react with a chemiluminescer in the acceptor bead. Fluorophores within the same bead are activated resulting in the emission of light at 580-620 nm.
(§5) Screening of the compounds of the invention was performed using the Alphascreen GST (glutathione s-transferase) detection kit system. Test compounds were titrated into the assay which consisted of GST tagged Bclw ΔC29 protein (0.05 nM Final concentration) and Biotinylated Bim BH3-26 peptide, Biotin-[…] (3.0 nM Final concentration). For the GST tagged BCl-xL assay, GST tagged BCl-xL ΔC25 protein (0.6 nM Final concentration) and Biotinylated Bim BH3-26 peptide, Biotin-[…] (5.0 nM final concentration) were used. To this reaction mix anti-GST coated acceptor beads and Streptavidin coated donor beads, both at 15 μg/ml Final concentration, were added and the assay mixture incubated for 4 hours at room temperature before reading. Similarly when the Bcl-2 protein was Mcl-1, GST tagged Mcl-1 protein (0.4 nM Final concentration) and Biotinylated Bak BH3 peptide, Biotin-[…]-OH (4.0 nM Final concentration) were used.
(§6) • 1) prepare a 384 well with 4.75 μL of buffer and 0.25 μL of compounds (20 mM in DMSO) per well. • 2) Mix the binding partners, in one tube add Bcl-w, BCl-xL or Mcl-1 and the acceptor beads, in the second tube add Biotinylated BH3 peptide and the donor beads. • 3) Pre-incubate the two pairs of binding partners for 30 minutes. • 4) Add 1 μL of acceptor beads:Bcl-w, BCl-xL or Mcl-1 protein mix to each well. • 5) Seal the plate and incubate at room temperature for 30 minutes. • 6) Add 10 μL of donor bead:BH3 peptide mix to each well. • 7) Seal the plate, cover with foil and incubate for 4 hours.
(§7) Assay buffer contained 50 mM Hepes pH 7.4, 10 mM DTT, 100 mM NaCl, 0.05% Tween and 0.1 mg/ml casein. Bead dilution buffer contained 50 mM Tris, pH 7.5, 0.01% Tween and 0.1 mg/ml casein. The final DMSO concentration in the assay was 0.5%. Assays were performed in 384 well white Optiplates and analyzed on the PerkinElmer Fusion alpha plate reader (Ex680, Em520-620 nM).
(§8) The GST Alphascreen detection kit and Optiplates were purchased from PerkinElmer.

[1] = target: GST tagged BCl-xL ΔC25 protein (Homo sapiens, UniProt Q07817); assay: Alphascreen competition binding assay, GST tagged Bcl-xL vs biotinylated Bim BH3-26 peptide; details: competition with Bim BH3-26 peptide; unit inferred
GST tagged BCl-xL ΔC25 protein, sequence (Q07817 1-208 limits assumed): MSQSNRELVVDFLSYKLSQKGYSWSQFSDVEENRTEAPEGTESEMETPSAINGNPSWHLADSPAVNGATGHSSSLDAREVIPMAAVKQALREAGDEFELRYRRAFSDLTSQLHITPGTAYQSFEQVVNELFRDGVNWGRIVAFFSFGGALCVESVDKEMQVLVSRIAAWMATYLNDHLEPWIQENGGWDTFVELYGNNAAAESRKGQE
Source text: as §2, §3, §4, §5, §6, §7, §8

[2] = tested on: mouse embryo fibroblasts (MEFs): wild type, Bax/Bak double knockout, Noxa-expressing, Bad-expressing; assay: Cell viability assay on mouse embryo fibroblasts (propidium iodide uptake); assay type: cell-based; details: propidium iodide uptake after 24 hours, FIG. 1A/1B
Protocol: FIG. 1 graphically depicts the effect of Compound 1 (FIG. 1A) and Etoposide (FIG. 1B), at increasing concentrations, on the % viability of certain mouse embryo fibroblast (MEF) cells as assessed by propidium iodide uptake after 24 hours. Noxa and Bad were introduced by retrovirally infecting the cells with pMIG retroviruses as described by Chen et al., 2005.
The efficacy of the compounds of the present invention can also be determined in cell based killing assays using a variety of cell lines and mouse tumor models. For example, their activity on cell viability can be assessed on a panel of cultured tumorigenic and non-tumorigenic cell lines, as well as primary mouse or human cell populations, e.g. lymphocytes. For these assays, 5,000-20,000 cells are cultured at 37° C. and 10% CO2 in appropriate growth media, eg: 100 μL Dulbecco's Modified Eagle's medium supplemented with 10% foetal calf serum, asparaginase and 2-mercaptoethanol in the case of pre-B Eμ-Myc mouse tumors in 96 well plates. […] Cell viability is determined by the ability of the cells to exclude propidium iodide (10 μg/mL by immunofluorescence analysis of emission wavelengths of 660-675 nm on a flow cytometer (BD FACScan). Alternatively, a high throughput calorimetric assay such as the Cell Titre 96 could be used. Aqueous Non-Radioactive Cell Proliferation Assay (Promega) may be used. Cell death by apoptosis is confirmed by pre-incubation of the cells with 50 μM of a caspase inhibitor such as zVAD-fmk.
Neutralisation of both Bcl-xL and Mcl-1 anti-apoptotic proteins in normal cells is required before a cell undergoes apoptosis via the downstream Bax/Bak pathway [Chen et al., 2005; Willis et al., 2005]. A compound that only targets Bcl-xL should not affect normal cells, but could kill certain cancer cells if they rely more on Bcl-xL and less on Mcl-1 for survival. To mirror this, compound 1 was tested for its effect on survival of wild type (wt) mouse embryo fibroblasts (MEFs), Bax/Bak double knockout (BB DKO) MEFs, MEFs that expressed Noxa, and MEFs that expressed Bad. Noxa specifically neutralizes Mcl-1.

SCLC cell line NCI-H1963 = assay: CellTitre-Glow luminescent cytotoxicity assay, NCI-H1963; assay type: cell-based; details: Homo sapiens; NCI-H1963 cells, 48 hr incubation
Protocol: as §1

SCLC cell line NCI-H889 = assay: CellTitre-Glow luminescent cytotoxicity assay, NCI-H889; assay type: cell-based; details: Homo sapiens; NCI-H889 cells, 48 hr incubation
Protocol: as §1

## CN(C)CC[C@H](CSc1ccccc1)Nc1ccc(S(=O)(=O)Nc2ncnc3cc(N4CCN(Cc5ccccc5-c5ccc(Cl)cc5)CC4)ccc23)cc1[N+](=O)[O-] [Compound 1, N-{7-[4-(4′-Chloro-biphenyl-2-ylmethyl)-piperazin-1-yl]-quinazolin-4-yl}-4-((R)-3-dimethylamino-1-phenylsulfanylmethyl-propylamino)-3-nitro-benzenesulfonamide]
SCLC cell line NCI-H146
  EC50: 0.61 µM
GST tagged Mcl-1 protein
  IC50: 9000 nM
[1]
  IC50: 7 nM
[2]
  Selectivity of killing of Noxa-expressing MEFs versus MEFs where both Bcl-xL and Mcl-1 are protective (% viability): much more sensitive to killing
SCLC cell line NCI-H1963
  EC50: 0.17 µM
SCLC cell line NCI-H889
  EC50: 0.21 µM
